Source: the NIST ThermoML archive (doi:10.1021/je301164d)
Numbers after ± are expanded uncertainties.

Settings: Fluid (supercritical or subcritical phases)

CC(F)(F)CC(F)(F)F [1,1,1,3,3-pentafluorobutane]
Settings | speed of sound [m/s]
250 K, 1105.2 kPa | 921.65 ± 0.41
250 K, 2105.8 kPa | 926.73 ± 0.41
250 K, 3106.3 kPa | 931.74 ± 0.41
250 K, 4106.9 kPa | 936.7 ± 0.41
250 K, 5107.4 kPa | 941.59 ± 0.41
250 K, 6108.3 kPa | 946.43 ± 0.42
250 K, 7108.9 kPa | 951.22 ± 0.42
250 K, 8108.1 kPa | 955.95 ± 0.42
250 K, 9108.8 kPa | 960.64 ± 0.42
250 K, 10110 kPa | 965.28 ± 0.43
250 K, 12611 kPa | 976.67 ± 0.43
250 K, 15113 kPa | 987.78 ± 0.43
250 K, 17614 kPa | 998.62 ± 0.44
250 K, 20116 kPa | 1009.2 ± 0.44
250 K, 25120 kPa | 1029.8 ± 0.45
250 K, 30123 kPa | 1049.5 ± 0.46
250 K, 35127 kPa | 1068.4 ± 0.47
250 K, 40130 kPa | 1086.7 ± 0.48
250 K, 45133 kPa | 1104.4 ± 0.49
250 K, 50137 kPa | 1121.5 ± 0.5
260 K, 1104.3 kPa | 881.57 ± 0.39
260 K, 2104.8 kPa | 886.96 ± 0.39
260 K, 3105.3 kPa | 892.27 ± 0.4
260 K, 4105.9 kPa | 897.52 ± 0.4
260 K, 5106.3 kPa | 902.7 ± 0.4
260 K, 6107.9 kPa | 907.82 ± 0.4
260 K, 7109.2 kPa | 912.89 ± 0.4
260 K, 8109.9 kPa | 917.88 ± 0.41
260 K, 9110.7 kPa | 922.82 ± 0.41
260 K, 10112 kPa | 927.71 ± 0.41
260 K, 12613 kPa | 939.68 ± 0.42
260 K, 15115 kPa | 951.34 ± 0.42
260 K, 17617 kPa | 962.7 ± 0.43
260 K, 20118 kPa | 973.79 ± 0.43
260 K, 25122 kPa | 995.21 ± 0.44
260 K, 30126 kPa | 1015.7 ± 0.45
260 K, 35129 kPa | 1035.4 ± 0.46
260 K, 40133 kPa | 1054.3 ± 0.47
260 K, 45136 kPa | 1072.6 ± 0.48
260 K, 50140 kPa | 1090.3 ± 0.48
260 K, 60146 kPa | 1124.1 ± 0.5
260 K, 70153 kPa | 1155.9 ± 0.52
260 K, 80160 kPa | 1186.1 ± 0.53
260 K, 90167 kPa | 1214.9 ± 0.55
260 K, 100174 kPa | 1242.4 ± 0.56
280 K, 1104.4 kPa | 803.31 ± 0.36
280 K, 2104.9 kPa | 809.41 ± 0.36
280 K, 3105.4 kPa | 815.42 ± 0.36
280 K, 4106 kPa | 821.34 ± 0.37
280 K, 5106.6 kPa | 827.16 ± 0.37
280 K, 6107.8 kPa | 832.89 ± 0.37
280 K, 7108.5 kPa | 838.55 ± 0.38
280 K, 8109.3 kPa | 844.12 ± 0.38
280 K, 9110.2 kPa | 849.62 ± 0.38
280 K, 10111 kPa | 855.04 ± 0.38
280 K, 12613 kPa | 868.29 ± 0.39
280 K, 15114 kPa | 881.13 ± 0.39
280 K, 17616 kPa | 893.6 ± 0.4
280 K, 20118 kPa | 905.71 ± 0.4
280 K, 25121 kPa | 929 ± 0.41
280 K, 30124 kPa | 951.17 ± 0.42
280 K, 35128 kPa | 972.34 ± 0.43
280 K, 40131 kPa | 992.62 ± 0.44
280 K, 45135 kPa | 1012.1 ± 0.45
280 K, 50138 kPa | 1030.9 ± 0.46
280 K, 60145 kPa | 1066.6 ± 0.48
280 K, 70152 kPa | 1100.2 ± 0.49
280 K, 80159 kPa | 1131.9 ± 0.51
280 K, 90166 kPa | 1162 ± 0.52
280 K, 100172 kPa | 1190.6 ± 0.54
300 K, 1104.5 kPa | 727.1 ± 0.33
300 K, 2105 kPa | 734.06 ± 0.33
300 K, 3105.5 kPa | 740.9 ± 0.34
300 K, 4106 kPa | 747.61 ± 0.34
300 K, 5107 kPa | 754.19 ± 0.34
300 K, 6107.6 kPa | 760.65 ± 0.34
300 K, 7107.1 kPa | 766.96 ± 0.35
300 K, 8107.8 kPa | 773.21 ± 0.35
300 K, 9108.4 kPa | 779.34 ± 0.35
300 K, 10110 kPa | 785.37 ± 0.35
300 K, 12612 kPa | 800.06 ± 0.36
300 K, 15114 kPa | 814.23 ± 0.37
300 K, 17616 kPa | 827.91 ± 0.37
300 K, 20117 kPa | 841.15 ± 0.38
300 K, 25121 kPa | 866.44 ± 0.39
300 K, 30125 kPa | 890.34 ± 0.4
300 K, 35129 kPa | 913.06 ± 0.41
300 K, 40132 kPa | 934.74 ± 0.42
300 K, 45136 kPa | 955.48 ± 0.43
300 K, 50139 kPa | 975.38 ± 0.44
300 K, 60146 kPa | 1013.1 ± 0.46
300 K, 70153 kPa | 1048.3 ± 0.47
300 K, 80160 kPa | 1081.4 ± 0.49
300 K, 90167 kPa | 1112.7 ± 0.5
300 K, 100174 kPa | 1142.5 ± 0.52
319.99 K, 2104.9 kPa | 660.37 ± 0.3
319.99 K, 3105.5 kPa | 668.24 ± 0.31
319.99 K, 4106.3 kPa | 675.92 ± 0.31
319.99 K, 5107.7 kPa | 683.41 ± 0.31
319.99 K, 6108.6 kPa | 690.74 ± 0.32
319.99 K, 7109.3 kPa | 697.91 ± 0.32
319.99 K, 8110 kPa | 704.93 ± 0.32
320 K, 9111.2 kPa | 711.77 ± 0.33
320 K, 10112 kPa | 718.52 ± 0.33
320 K, 12614 kPa | 734.86 ± 0.34
320 K, 15115 kPa | 750.5 ± 0.34
320 K, 17617 kPa | 765.53 ± 0.35
320 K, 20119 kPa | 779.98 ± 0.35
320 K, 25123 kPa | 807.44 ± 0.36
320 K, 30126 kPa | 833.19 ± 0.38
320 K, 35130 kPa | 857.51 ± 0.39
320 K, 40134 kPa | 880.59 ± 0.4
320 K, 45137 kPa | 902.59 ± 0.41
320 K, 50141 kPa | 923.63 ± 0.42
